The source of these data is PubChem BioAssay (NCI).

Molecules are shown by their SMILES.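 Test compounds were applied to cells in 96-well plates for 48 hours at 5 doses. At the TGI there is no net growth.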

Among the test systems are OVCAR-5 ovarian; HCT-116 colon; RXF 393 renal; OVCAR-3 ovarian; OVCAR-4 ovarian; SNB-19 CNS; SF-539 CNS; EKVX NSCLC; SK-OV-3 ovarian; MDA-MB-435; MDA-N; HOP-62 NSCLC; NCI-H460 lung; ACHN renal; MCF7 breast; RPMI-8226 leukemia; MDA-MB-231 breast; UO-31 renal; SR leukemia; CCRF-CEM leukemia.
Assay in all cases: inhibition of tumour cell growth, NCI panel, 48 h

Turning to `CCOP(=O)(C=C=C1CCC2[C@@H]3CCc4cc(OC)ccc4C3CC[C@]12C)OCC` (some centres undefined), the TGI with OVCAR-5 ovarian was 31.4 µM; with HCT-116 colon it was 19.2 µM; in the assay on RXF 393 renal, 14.8 µM; in the assay on OVCAR-3 ovarian, 24.2 µM; in the assay with OVCAR-4 ovarian, 21.3 µM; in the assay on SNB-19 CNS it was 28.3 µM. In addition, the TGI in the assay with SF-539 CNS is 29 µM; with EKVX NSCLC, 21.9 µM; with SK-OV-3 ovarian, 31.8 µM; with MDA-MB-435, 25.5 µM; with MDA-N, 26 µM; with HOP-62 NSCLC, 30 µM. For the same molecule, the values for the TGI in the assay on NCI-H460 lung, with ACHN renal and with MCF7 breast were 27.6 µM, 21.9 µM and 20.7 µM, respectively.

As to `Clc1ccc(Nc2nnc(CCCCCCCCc3nnc(Nc4ccc(Cl)cc4)o3)o2)cc1`, the TGI in the assay with OVCAR-5 ovarian is > 100 µM; in the assay on HCT-116 colon it was 34.5 µM; in the assay with OVCAR-4 ovarian, > 100 µM; in the assay on RPMI-8226 leukemia, 79.7 µM; in the assay with SNB-19 CNS it was > 100 µM; in the assay on MDA-MB-231 breast, > 100 µM. Further, the TGI with EKVX NSCLC, in the assay on SK-OV-3 ovarian, in the assay on MDA-MB-435, in the assay with MDA-N, in the assay with HOP-62 NSCLC and in the assay on UO-31 renal was > 100 µM each time. The TGI with NCI-H460 lung, in the assay with ACHN renal and in the assay with MCF7 breast was > 100 µM each time.

Regarding `COc1ccc(N=C2S/C(=N\C(=Nc3ccccc3)SCc3ccccc3)N(c3ccccc3)C2=Nc2ccc(OC)cc2)cc1`, the TGI with HCT-116 colon, with RXF 393 renal, with SR leukemia, in the assay with RPMI-8226 leukemia, with SNB-19 CNS and with MDA-MB-231 breast was > 100 µM each time. Further, the TGI in the assay on EKVX NSCLC, with CCRF-CEM leukemia, in the assay with MDA-N, in the assay on HOP-62 NSCLC, in the assay with UO-31 renal and in the assay with MCF7 breast was > 100 µM throughout.

Consider `Oc1cc(O)c2ccc(-c3ccc(O)c(O)c3)[o+]c2c1`, for which the TGI with OVCAR-5 ovarian, with HCT-116 colon, with RXF 393 renal, with OVCAR-3 ovarian, in the assay on OVCAR-4 ovarian and in the assay on RPMI-8226 leukemia was > 100 µM each time. Moreover, the TGI in the assay on SNB-19 CNS, in the assay on SF-539 CNS, in the assay with EKVX NSCLC, in the assay on SK-OV-3 ovarian, in the assay with CCRF-CEM leukemia and in the assay on MDA-MB-435 was > 100 µM throughout. The TGI with MDA-N, in the assay on HOP-62 NSCLC, with UO-31 renal, in the assay with NCI-H460 lung, in the assay with ACHN renal and in the assay on MCF7 breast was > 100 µM throughout.

As to `O=C(O)CSCc1cc2c(O)c(c1)Cc1cc(CSCC(=O)O)cc(c1O)Cc1cc(CSCC(=O)O)cc(c1O)Cc1cc(CSCC(=O)O)cc(c1O)C2`, the TGI in the assay with OVCAR-5 ovarian, in the assay on HCT-116 colon, in the assay with RXF 393 renal, in the assay on OVCAR-3 ovarian, in the assay on SR leukemia and with OVCAR-4 ovarian was > 100 µM each time. In addition, the TGI in the assay on RPMI-8226 leukemia, in the assay with SNB-19 CNS, in the assay on SF-539 CNS, in the assay with EKVX NSCLC, in the assay with SK-OV-3 ovarian and in the assay with CCRF-CEM leukemia was > 100 µM in each case. Further, the TGI in the assay with MDA-MB-435, in the assay on MDA-N, in the assay on HOP-62 NSCLC, in the assay on UO-31 renal, in the assay with NCI-H460 lung and in the assay with ACHN renal was > 100 µM in each case. Besides, the TGI in the assay on MCF7 breast was > 100 µM.

As for `CCOc1ccc(N/C(=C(/C(Cl)=C(/Cl)Nc2ccccc2)[N+](=O)[O-])n2nnc3ccccc32)cc1`, the TGI in the assay on OVCAR-5 ovarian is > 100 µM; in the assay on HCT-116 colon, 56 µM; in the assay on OVCAR-3 ovarian, 80.8 µM; in the assay with OVCAR-4 ovarian it was > 100 µM; with RPMI-8226 leukemia, > 100 µM; in the assay with SNB-19 CNS, > 100 µM. Besides, the TGI with MDA-MB-231 breast is 58.1 µM; with EKVX NSCLC, > 100 µM; in the assay with SK-OV-3 ovarian it was > 100 µM; with MDA-MB-435, 87.5 µM; in the assay on MDA-N, 40.3 µM; in the assay with HOP-62 NSCLC, 70.3 µM. Also, the TGI in the assay with UO-31 renal is 54.5 µM; with NCI-H460 lung it was > 100 µM; in the assay with ACHN renal, > 100 µM; in the assay on MCF7 breast, > 100 µM.

In the case of `CCc1c(CN)c(CC)c(CNC2=NCCN2)c(CC)c1CNC1=NCCN1`, the TGI in the assay with OVCAR-5 ovarian, in the assay with HCT-116 colon, in the assay on RXF 393 renal, in the assay on OVCAR-3 ovarian, in the assay with SR leukemia and with OVCAR-4 ovarian was > 100 µM each time. The TGI in the assay with RPMI-8226 leukemia, in the assay with SNB-19 CNS, in the assay with SF-539 CNS, in the assay on EKVX NSCLC, with SK-OV-3 ovarian and in the assay with CCRF-CEM leukemia was > 100 µM throughout. In addition, the TGI in the assay on MDA-MB-435, in the assay on MDA-N, in the assay with HOP-62 NSCLC, in the assay on UO-31 renal, with NCI-H460 lung and in the assay on ACHN renal was > 100 µM throughout. In addition, the TGI with MCF7 breast was > 100 µM.
